Where a name gives a salt, the structure may show the parent alone.
Key:
Settings in all cases: exposure time: 15 min to 3 h acute
Dugesia japonica [1] = assay: crawl-out incidence (% planarians); higher = higher incidence or increase relative to vehicle control
Dugesia japonica [2] = assay: speed in dark vs vehicle (% change vs vehicle); higher = higher incidence or increase relative to vehicle control
Method in brief: (§1)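 Crawling speed is given as the median percent change after each worm was normalised to its plate's vehicle median, leaving out worms that crawled out. Fasted, intact Dugesia japonica were placed one per well in 200 μL in 48-well plates and tracked automatically in darkness or during blue-light periods, 15 min to 3 h after exposure in 0.5% DMSO or water vehicle. Runs used eight worms per concentration per plate in technical triplicate (n = 24).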

Dugesia japonica [3] = assay: C-shape incidence (% planarians (vehicle-normalised)); higher = higher incidence or increase relative to vehicle control
Method in brief: (§2)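 D. japonica planarians (fasted 5–7 days), one per well in 200 μL in sealed 48-well plates, were screened within 15 minutes–3 hours of exposure to at least 5 concentrations. Body shapes (contraction, C-shape, corkscrew, hyperkinesis) were scored manually and blind by a researcher; worms that crawled out were excluded. The value is the incidence of the given shape, or of any abnormal shape, ×100, normalised to in-plate vehicle controls, with negatives set to 0.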

Dugesia japonica [4] = assay: corkscrew incidence (% planarians (vehicle-normalised)); higher = higher incidence or increase relative to vehicle control
Method in brief: as §2

Dugesia japonica [5] = assay: stickiness incidence (% planarians (vehicle-normalised)); higher = higher incidence or increase relative to vehicle control
Method in brief: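 Stickiness was scored as a yes-or-no outcome in fasted Dugesia japonica planarians, and incidence was normalised to the vehicle incidence on the same plate. Each worm sat alone in a well of a sealed 48-well plate holding 200 μL of solution and was tested 15 min–3 h after exposure to half- or quarter-log concentration series, with 0.5% DMSO or water as vehicle. Technical triplicates were pooled (n = 24), negative values were set to 0, values were multiplied by 100, and worms that crawled out were excluded.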

Dugesia japonica [6] = assay: hyperkinesis incidence (% planarians (vehicle-normalised)); higher = higher incidence or increase relative to vehicle control
Method in brief: as §2

Dugesia japonica [7] = assay: speed first 30 s blue light vs vehicle (% change vs vehicle); higher = higher incidence or increase relative to vehicle control
Method in brief: as §1

Dugesia japonica [8] = assay: speed second 30 s blue light vs vehicle (% change vs vehicle); higher = higher incidence or increase relative to vehicle control
Method in brief: as §1

Dugesia japonica [9] = assay: pharynx extrusion incidence (% planarians (vehicle-normalised)); higher = higher incidence or increase relative to vehicle control
Method in brief: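 Intact, fasted Dugesia japonica were placed one per well in 48-well plates with 200 μL each and scored 15 min to 3 h after exposure in either water or 0.5% DMSO vehicle. Pharynx extrusion was judged manually and blind as a body-shape category. Each concentration used eight worms per plate in technical triplicate (n = 24). Incidence was normalised to vehicle controls on the same plate, negative values were set to 0, and worms that crawled out were excluded.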

Dugesia japonica [10] = assay: loss of phototaxis incidence (% planarians (vehicle-normalised)); higher = higher incidence or increase relative to vehicle control
Method in brief: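 Intact, fasted Dugesia japonica were tested 15 min to 3 h after exposure in 0.5% DMSO or water vehicle, one per well of a 48-well plate in 200 μL. Automated object tracking was used to score each worm for loss of phototaxis as a yes/no result. With eight worms per concentration per plate in technical triplicate (n = 24), worms that crawled out were excluded. The incidence rate ×100 was normalised to in-plate vehicle controls and negatives were set to 0.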

Dugesia japonica [11] = assay: total locomotor bursts minus vehicle (bursts difference vs vehicle); higher = higher incidence or increase relative to vehicle control
Method in brief: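 Planarians of the species Dugesia japonica, fasted beforehand, received half- or quarter-log concentration series in 0.5% DMSO or water, one animal per well of a sealed 48-well plate holding 200 μL solution. They were tested 15 min–3 h after exposure in technical triplicates totalling n = 24. Each animal's count of total locomotor bursts, an unstimulated behaviour obtained by image-based object tracking, had the plate vehicle-control median subtracted without ×100 scaling. The figure given is the median normalised response, with crawled-out worms excluded.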

Dugesia japonica [12] = assay: noxious heat displacement strength vs vehicle (% change vs vehicle); higher = higher incidence or increase relative to vehicle control
Method in brief: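 In the scrunching assay, displacement strength under noxious heat was tracked automatically in intact, fasted Dugesia japonica and expressed as the median percent change from the plate's vehicle median. Testing took place 15 min to 3 h after exposure in 0.5% DMSO or water vehicle, with one worm per well of a 48-well plate in 200 μL. Eight worms per concentration per plate were tested in technical triplicate (n = 24), and any that crawled out were left out.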

Dugesia japonica [13] = assay: contracted body shape incidence (% planarians (vehicle-normalised)); higher = higher incidence or increase relative to vehicle control
Method in brief: as §2

Dugesia japonica [14] = assay: anxiety (time in outer well region) vs vehicle (% change vs vehicle); higher = higher incidence or increase relative to vehicle control
Method in brief: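 Each planarian's time in the outer portion of its well was scored, worms that crawled out were dropped, and the median normalized response is reported. Fasted 5–7 days, D. japonica worms were tested singly in 200 μL in sealed 48-well plates at at least 5 concentrations, n = 24 per concentration, within 15 minutes–3 hours. Each response was normalized by dividing by, or subtracting, the plate vehicle median and multiplying by 100.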

Dugesia japonica [15] = assay: any abnormal body shape incidence (% planarians (vehicle-normalised)); higher = higher incidence or increase relative to vehicle control
Method in brief: as §2

Dugesia japonica [16] = assay: resting fraction in dark vs vehicle (difference in fraction x100 vs vehicle); higher = higher incidence or increase relative to vehicle control
Method in brief: (§3)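 Resting fraction in the dark or under blue light is reported as a median from automated tracking of intact, fasted Dugesia japonica. Worms were held one per well of a 48-well plate in 200 μL and tested 15 min to 3 h after exposure in 0.5% DMSO or water vehicle. Each worm's value was its difference from the plate's vehicle median multiplied by 100, and worms that crawled out were excluded.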

Dugesia japonica [17] = assay: loss of heat-induced scrunching incidence (% planarians (vehicle-normalised)); higher = higher incidence or increase relative to vehicle control
Method in brief: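 The incidence of worms lacking a scrunching response to a noxious heat stimulus, normalised to vehicle controls within each plate, is the value listed. It appears ×100 with negatives set to 0. Single D. japonica planarians in 200 μL per well of 48-well plates were exposed to at least 5 concentrations (n = 24 per concentration) and tested within 15 minutes–3 hours, excluding worms that crawled out.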

Dugesia japonica [18] = assay: resting fraction in blue light vs vehicle (difference in fraction x100 vs vehicle); higher = higher incidence or increase relative to vehicle control
Method in brief: as §3

| Compound | crawl-out incidence (Dugesia japonica [1]) | speed in dark (Dugesia japonica [2]) | C-shape incidence (Dugesia japonica [3]) | corkscrew incidence (Dugesia japonica [4]) | stickiness incidence (Dugesia japonica [5]) | hyperkinesis incidence (Dugesia japonica [6]) | speed first 30 s blue light (Dugesia japonica [7]) | speed second 30 s blue light (Dugesia japonica [8]) | pharynx extrusion incidence (Dugesia japonica [9]) | loss of phototaxis incidence (Dugesia japonica [10]) | total locomotor bursts minus vehicle (Dugesia japonica [11]) | noxious heat displacement strength (Dugesia japonica [12]) | contracted body shape incidence (Dugesia japonica [13]) | anxiety (Dugesia japonica [14]) | any abnormal body shape incidence (Dugesia japonica [15]) | resting fraction in dark (Dugesia japonica [16]) | loss of heat-induced scrunching incidence (Dugesia japonica [17]) | resting fraction in blue light (Dugesia japonica [18]) |
| --- | --- | --- | --- | --- | --- | --- | --- | --- | --- | --- | --- | --- | --- | --- | --- | --- | --- | --- |
| CNCCC(Oc1ccc(C(F)(F)F)cc1)c1ccccc1 (stereo unspecified) [fluoxetine hydrochloride] (100 µM) | 0 | -65.4 | 33.3 | 0 | ≤ 0 | 29.2 | -90.4 | -89.3 | 0 | 37.5 | 15.5 | -80.3 | 0 | 7.58 | 50 | 70.7 | 37.5 | 79.5 |
| CNCC[C@H](Oc1cccc2ccccc12)c1cccs1 [s-duloxetine] (3.16 µM) | 0 | 70.8 | 0 | 0 | 16.7 | 0 | 167 | 68.4 | 0 | ≤ 0 | -2.5 | -40.2 | 0 | 12 | 0 | -19 | 25 | -12.5 |
| CN1C(=O)CN=C(c2ccccc2)c2cc(Cl)ccc21 [diazepam] (10 µM) | 0 | 15.9 | 0 | 0 | 21.7 | 0 | 0.43 | -16.1 | 0 | 50 | -1 | -17.4 | 0 | 0.94 | 0 | -5.91 | 12.5 | 0.83 |
| O=C(O)C(=O)O [oxalic acid] (1000 µM) | 0 | -53.2 | 41.7 | 0 | ≤ 0 | 0 | -88.1 | -90.4 | 0 | 54.2 | 4 | -57 | 50 | -19.2 | 62.5 | 60.5 | 83.3 | 63.9 |
| O=C1CCc2ccc(OCCCCN3CCN(c4cccc(Cl)c4Cl)CC3)cc2N1 [aripiprazole] (31.6 µM) | 0 | -62.3 | 62.5 | 4.17 | ≤ 0 | 12.5 | -79.9 | -81.8 | 4.17 | 25 | 53 | -38.6 | 0 | -46.5 | 70.8 | 56.6 | 70.8 | 32 |
| CN1CCN(C2=Nc3cc(Cl)ccc3Nc3ccccc32)CC1 [clozapine] (31.6 µM) | 0 | -76.4 | 29.2 | 29.2 | ≤ 0 | 50 | -93.4 | -91.3 | 0 | 54.2 | -3 | -34.2 | 4.17 | -27.4 | 87.5 | 77.6 | 66.7 | 75.8 |
| CCCCNc1c(C(=O)OCC)c(C)nc2c1cnn2CC [tracazolate hydrochloride] (3.16 µM) | 0 | -4.2 | 0 | 0 | ≤ 0 | 12.5 | -7.17 | -5.52 | 0 | 8.33 | 0.5 | -6.19 | 0 | -16.4 | 8.33 | 0 | ≤ 0 | 0.22 |
| CN(C)CCC[C@@]1(c2ccc(F)cc2)OCc2cc(C#N)ccc21 [escitalopram] (1000 µM) | 4.17 | -42.1 | 0 | 26.1 | 30.4 | 56.5 | -68.2 | -66.8 | 0 | 8.7 | 37.8 | -59 | 4.35 | 19.7 | 69.6 | 17.6 | 60.9 | 18.9 |
| CN1CCN(C2=Nc3cc(Cl)ccc3Nc3ccccc32)CC1 [clozapine] (3.16 µM) | 0 | -74 | 0 | 4.17 | 20.8 | 20.8 | -90.3 | -87.9 | 0 | 16.7 | 26.8 | -40.6 | 8.33 | -27.9 | 20.8 | 74.7 | 33.3 | 69.7 |
| Cc1ncc2n1-c1ccc(Cl)cc1C(c1ccccc1F)=NC2 [midazolam] (100 µM) | 0 | -70.7 | 20.8 | 0 | 20.8 | 70.8 | -93 | -87.7 | 4.17 | 29.2 | 28.5 | -48.3 | 45.8 | 2.35 | 95.8 | 59.7 | 45.8 | 68.2 |
| O=C1CC2(CCCC2)CC(=O)N1CCCCN1CCN(c2ncccn2)CC1 [buspirone] (10 µM) | 0 | -20.5 | 0 | 0 | 16.7 | 20.8 | -68.5 | -54.8 | 0 | 25 | 6.25 | -46.4 | 4.17 | -1.55 | 20.8 | 16.7 | 8.33 | 26.6 |
| Cc1ncc2n1-c1ccc(Cl)cc1C(c1ccccc1F)=NC2 [midazolam] (31.6 µM) | 0 | 8.87 | 0 | 0 | ≤ 0 | 20.8 | -1.82 | 23.1 | 0 | ≤ 0 | -0.5 | -27.4 | 0 | 3.09 | 20.8 | -0.404 | 8.33 | -0.5 |
| Cc1ncc2n1-c1ccc(Cl)cc1C(c1ccccc1F)=NC2 [midazolam] (56.2 µM) | 0 | -34 | 0 | 0 | 4.17 | 20.8 | -29.6 | -10.2 | 0 | ≤ 0 | 2.5 | -25.6 | 12.5 | 7.1 | 33.3 | 22.7 | ≤ 0 | 2.61 |
| O=C(CCCN1CCC(O)(c2ccc(Cl)cc2)CC1)c1ccc(F)cc1 [haloperidol] (31.6 µM) | 16.7 | -59.3 | 0 | 52.6 | ≤ 0 | 21.1 | -68 | -62.8 | 0 | 15 | 15.5 | -24 | 10.5 | -7.34 | 63.2 | 35.2 | 5 | 16.3 |
| O=C(O)C(=O)O [oxalic acid] (316 µM) | 0 | -42.2 | 0 | 0 | 37.5 | 58.3 | -63.2 | -69 | 0 | 8.33 | 31.5 | -67.5 | 0 | -24.7 | 62.5 | 33 | ≤ 0 | 22.9 |
| CNCCC(Oc1ccc(C(F)(F)F)cc1)c1ccccc1 (stereo unspecified) [fluoxetine hydrochloride] (31.6 µM) | 0 | -58.6 | 0 | 0 | ≤ 0 | 0 | -70.9 | -66.4 | 0 | 16.7 | 9 | -49.6 | 0 | 10.3 | 0 | 10.3 | 8.33 | 6.49 |
| O=C(CCCN1CCC(O)(c2ccc(Br)cc2)CC1)c1ccc(F)cc1 [bromperidol] (3.16 µM) | 33.3 | -33.9 | 4.76 | 14.3 | ≤ 0 | 47.6 | -55.1 | -53.4 | 0 | ≤ 0 | 11 | -37 | 9.52 | -1.33 | 57.1 | 24 | 47.6 | 28.6 |

From the supplement of paper PMC11781733
